In publication PMC11480411, “Mucosal sugars delineate pyrazine vs pyrazinone autoinducer signaling in Klebsiella oxytoca” (Nature Communications, 2024):
“And” between values parts separate entries of the source, which are not always exact repeats. Equal entries are not always repeated.

Columns and labels:
[1] = tested on: leup operon (leupeptin BGC) promoter in K. oxytoca ATCC 8724; assay: GFP-based transcriptional reporter for the leup operon; type: cell-based, Klebsiella oxytoca; details: carbohydrate screen, M9 + casamino acid + 0.4% indicated sugar, 30 °C, 24 h
Description: We previously examined a panel of 84 clinical K. oxytoca isolates (including recently renamed Klebsiella michiganensis isolates) for the presence of either the leup operon or npsB, an NRPS of the tilimycin/tilivalline gene cluster. […] While the roles of tilivalline and tilimycin in hemorrhagic colitis are well studied[8],[9], the operon for leupeptin biosynthesis is “silent” in K. oxytoca under typical laboratory culture conditions (i.e., leupeptin production is undetectable). Therefore, our study commenced by exploring growth conditions required to trigger leupeptin biosynthesis in K. oxytoca. To achieve this, we generated a green fluorescent protein (GFP)-based reporter system to monitor leup transcription in K. oxytoca ATCC 8724 (recently renamed as Klebsiella michiganensis (ATCC 8724), Fig. 1a). We utilized λ-red recombineering techniques[38] to replace the first biosynthetic gene (leupA) of the leupeptin BGC with a GFP-spectinomycin resistance cassette. […] Consequently, conditions that elicit transcription of the leupeptin BGC can be monitored by GFP fluorescence intensity.
5 mL of the leupeptin reporter strain was cultured aerobically in 10 g/L of LB (Becton Dickinson), yeast extract, GAM (HiMedia Laboratories), horse liver extract (HiMedia Laboratories), malt extract (VWR), meat extract (HiMedia Laboratories), YPD (Dot Scienticifc), brain heart infusion (Becton Dickinson), porcine mucin (Sigma-Aldrich, M1778), clostridial (Becton Dickinson), TSB (VWR), or casamino acid supplemented (5 g/L, VWR) M9 minimal salts (MP Biomedicals) at 30 °C for 24 h at 250 rpm. Cultures were lysed via sonication, centrifuged, and 150 µL of the supernatants were aliquoted into black well clear bottom 96 well plates. GFP fluorescence measurements were performed on a BioTek Synergy H1 plate reader with an excitation wavelength of 488 nm and an emission wavelength of 525 nm. For the carbohydrate screen, the leupeptin reporter strain was cultured in M9 minimal medium (MPbio) supplemented with casamino acid (5 g/L, VWR) and 0.4% indicated sugar aerobically at 30 °C for 24 h at 250 rpm.

HRH1 = target: T1, HRH1 (Homo sapiens, UniProt P35367); assay: PRESTO-Tango GPCR screen and dose-response; type: cell-based; details: replicate wells
T1 construct: expressed in transfected cells; host or cells: HTLA cells (HEK293 line stably expressing β-arrestin-TEV and tTA-Luciferase)
T1 sequence (P35367 whole entry): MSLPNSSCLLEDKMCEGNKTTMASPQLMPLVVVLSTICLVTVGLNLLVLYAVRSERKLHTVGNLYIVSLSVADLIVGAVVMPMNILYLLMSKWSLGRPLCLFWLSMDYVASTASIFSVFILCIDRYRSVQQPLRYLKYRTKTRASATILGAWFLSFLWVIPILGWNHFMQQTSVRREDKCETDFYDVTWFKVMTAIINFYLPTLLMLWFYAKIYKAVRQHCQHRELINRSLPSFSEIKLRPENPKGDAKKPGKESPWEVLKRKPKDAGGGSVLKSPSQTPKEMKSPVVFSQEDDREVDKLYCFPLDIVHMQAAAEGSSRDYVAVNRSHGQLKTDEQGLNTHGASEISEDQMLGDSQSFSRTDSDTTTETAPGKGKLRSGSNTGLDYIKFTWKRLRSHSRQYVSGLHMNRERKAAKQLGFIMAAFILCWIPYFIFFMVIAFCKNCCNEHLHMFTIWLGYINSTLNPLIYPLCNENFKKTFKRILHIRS
Procedure: (§1) The PRESTO-Tango analyses were performed as previously published. Briefly, HTLA cells, a HEK293 cell line that stably expresses β-arrestin-TEV and tTA-Luciferase (a kind gift from Gilad Barnea, Brown University), were plated in 96-well tissue culture plates (Eppendorf) in DMEM containing 10% FBS and 1% Penicillin/Streptomycin. One day after plating (after reaching approximately 90% confluence), 200 ng per well GPCR-Tango plasmids[37] in 20 μL DMEM were individually mixed with 400 ng polyethylenimine (Polysciences) in an equal volume of DMEM and incubated for 20 min at room temperature before adding the transfection mixture to the HTLA cells. 16-24 h after transfection, medium was replaced with 180 μL fresh DMEM containing 1% Penicillin/Streptomycin and 10 mM HEPES and 20 μL of 3 or 3-Homo to reach a final concentration of 100 μM. Supernatants were aspirated 20 h after stimulation and 50 μl per well of Bright-Glo solution (Promega) diluted 20-fold with PBS containing 20 mM HEPES was added into each well. After 15 min incubation at room temperature, luminescence was quantified using a Spectramax i3x microplate reader (Molecular Devices). Activation fold for each sample was calculated by dividing relative luminescence units (RLU) for each condition by RLUs from PBS control. Dose response curves of each chemical were performed in a similar way with varying the ligand concentration from 10^−4 M to 10^−15 M.

HRH2 = target: T2, HRH2 (Homo sapiens, UniProt P25021); assay: PRESTO-Tango GPCR screen and dose-response; type: cell-based; details: replicate wells
T2 construct: expressed in transfected cells; host or cells: HTLA cells (HEK293 line stably expressing β-arrestin-TEV and tTA-Luciferase)
T2 sequence (P25021 whole entry): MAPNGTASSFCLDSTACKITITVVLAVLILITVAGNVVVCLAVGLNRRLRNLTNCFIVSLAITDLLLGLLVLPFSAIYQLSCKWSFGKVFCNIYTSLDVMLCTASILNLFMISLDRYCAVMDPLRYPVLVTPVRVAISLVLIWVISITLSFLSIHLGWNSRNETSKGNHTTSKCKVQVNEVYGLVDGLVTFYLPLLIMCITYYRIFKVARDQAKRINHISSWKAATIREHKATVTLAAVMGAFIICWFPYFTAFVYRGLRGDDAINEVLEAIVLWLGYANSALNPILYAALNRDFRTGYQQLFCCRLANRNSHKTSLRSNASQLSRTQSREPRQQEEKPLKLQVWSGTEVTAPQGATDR
Procedure: as §1

[2] = target: T3, histamine receptor H4 (HRH4) (Homo sapiens, UniProt Q9H3N8); assay: PRESTO-Tango GPCR screen and dose-response; type: cell-based; details: replicate wells
T3 construct: expressed in transfected cells; host or cells: HTLA cells (HEK293 line stably expressing β-arrestin-TEV and tTA-Luciferase)
T3 sequence (Q9H3N8 whole entry): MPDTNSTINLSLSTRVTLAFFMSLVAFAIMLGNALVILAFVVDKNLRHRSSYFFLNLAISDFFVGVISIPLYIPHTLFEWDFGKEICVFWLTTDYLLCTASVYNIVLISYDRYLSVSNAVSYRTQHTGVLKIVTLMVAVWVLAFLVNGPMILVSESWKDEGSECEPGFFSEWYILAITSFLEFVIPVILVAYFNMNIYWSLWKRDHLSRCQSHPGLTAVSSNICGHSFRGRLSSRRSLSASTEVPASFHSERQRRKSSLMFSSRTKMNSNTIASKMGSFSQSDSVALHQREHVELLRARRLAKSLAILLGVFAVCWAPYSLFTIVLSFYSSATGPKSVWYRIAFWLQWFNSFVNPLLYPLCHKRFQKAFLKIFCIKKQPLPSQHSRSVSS
Procedure: as §1

O[C@@H]1[C@@H](O)[C@@H](O)CO[C@H]1O [Arabinose]
GFP fluorescence, GFP Strain + Media ([1]; leup GFP reporter strain): 9484 RFU
GFP fluorescence, WT + Media ([1]; wildtype K. oxytoca without reporter (background)): 6365 RFU

NCCc1c[nH]cn1 [Histamine, histamine, reference compound]
HRH1 dose-response raw reporter signal (Fig. 5b source data) (HRH1; Log(10)Conc (M) -4): 81577 and 82137
HRH1 dose-response raw reporter signal (Fig. 5b source data) (HRH1; Log(10)Conc (M) -5): 78216 and 78255
HRH1 dose-response raw reporter signal (Fig. 5b source data) (HRH1; Log(10)Conc (M) -6): 75259 and 78673
HRH1 dose-response raw reporter signal (Fig. 5b source data) (HRH1; Log(10)Conc (M) -7): 76949 and 75622
HRH1 dose-response raw reporter signal (Fig. 5b source data) (HRH1; Log(10)Conc (M) -8): 67606 and 69585
HRH1 dose-response raw reporter signal (Fig. 5b source data) (HRH1; Log(10)Conc (M) -9): 52047 and 52194
HRH1 dose-response raw reporter signal (Fig. 5b source data) (HRH1; Log(10)Conc (M) -10): 45399 and 45284
HRH1 dose-response raw reporter signal (Fig. 5b source data) (HRH1; Log(10)Conc (M) -11): 44193 and 43739
HRH1 dose-response raw reporter signal (Fig. 5b source data) (HRH1; Log(10)Conc (M) -12): 45001 and 44441
HRH1 dose-response raw reporter signal (Fig. 5b source data) (HRH1; Log(10)Conc (M) -13): 46307 and 47693
HRH1 dose-response raw reporter signal (Fig. 5b source data) (HRH1; Log(10)Conc (M) -14): 46469 and 45317
HRH1 dose-response raw reporter signal (Fig. 5b source data) (HRH1; Log(10)Conc (M) -15): 42643 and 42151
HRH2 dose-response raw reporter signal (Fig. 5b source data) (HRH2; Log(10)Conc (M) -4): 3877 and 3933 and 3726
HRH2 dose-response raw reporter signal (Fig. 5b source data) (HRH2; Log(10)Conc (M) -5): 699 and 758 and 693
HRH2 dose-response raw reporter signal (Fig. 5b source data) (HRH2; Log(10)Conc (M) -6): 144 and 156 and 139
HRH2 dose-response raw reporter signal (Fig. 5b source data) (HRH2; Log(10)Conc (M) -7): 56 and 88 (2×)
HRH2 dose-response raw reporter signal (Fig. 5b source data) (HRH2; Log(10)Conc (M) -8): 94 and 91 and 50
HRH2 dose-response raw reporter signal (Fig. 5b source data) (HRH2; Log(10)Conc (M) -9): 62 and 56 and 65
HRH2 dose-response raw reporter signal (Fig. 5b source data) (HRH2; Log(10)Conc (M) -10): 59 and 68 and 77
HRH2 dose-response raw reporter signal (Fig. 5b source data) (HRH2; Log(10)Conc (M) -11): 53 and 68 and 38
HRH2 dose-response raw reporter signal (Fig. 5b source data) (HRH2; Log(10)Conc (M) -12): 50 and 56 and 88
HRH2 dose-response raw reporter signal (Fig. 5b source data) (HRH2; Log(10)Conc (M) -13): 44 and 77 and 100
HRH2 dose-response raw reporter signal (Fig. 5b source data) (HRH2; Log(10)Conc (M) -14): 44 and 83 and 77
HRH2 dose-response raw reporter signal (Fig. 5b source data) (HRH2; Log(10)Conc (M) -15): 32 and 47 and 38
HRH4 dose-response raw reporter signal (Fig. 5b source data) ([2]; Log(10)Conc (M) -5): 20161 and 21099
HRH4 dose-response raw reporter signal (Fig. 5b source data) ([2]; Log(10)Conc (M) -6): 15058 and 15677
HRH4 dose-response raw reporter signal (Fig. 5b source data) ([2]; Log(10)Conc (M) -7): 3788 and 3862
HRH4 dose-response raw reporter signal (Fig. 5b source data) ([2]; Log(10)Conc (M) -8): 887 and 1023
HRH4 dose-response raw reporter signal (Fig. 5b source data) ([2]; Log(10)Conc (M) -9): 590 and 625
HRH4 dose-response raw reporter signal (Fig. 5b source data) ([2]; Log(10)Conc (M) -10): 537 and 513
HRH4 dose-response raw reporter signal (Fig. 5b source data) ([2]; Log(10)Conc (M) -11): 475
HRH4 dose-response raw reporter signal (Fig. 5b source data) ([2]; Log(10)Conc (M) -12): 433 and 407
HRH4 dose-response raw reporter signal (Fig. 5b source data) ([2]; Log(10)Conc (M) -13): 377 and 419
HRH4 dose-response raw reporter signal (Fig. 5b source data) ([2]; Log(10)Conc (M) -14): 545 and 448
HRH4 dose-response raw reporter signal (Fig. 5b source data) ([2]; Log(10)Conc (M) -15): 245
